Experimental data as given in PubChem BioAssay AID179 (DTP/NCI, 2004).
Several values for one entry are separate records, joined by “and”; a condition that tells them apart may be missing. Identical values can stand only once. Activity calls are given as the source filed them.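 Rule for the calls: active = compounds giving half or more protection of infected cells from virus-caused growth loss, again on retest; inactive = the rest.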

Test system: CEM cells HIV-1 protection, formazan growth assay
Experiment: NCI AIDS Antiviral Assay
Details: for IC50: measured here: growth of uninfected CEM cells
Method in brief: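 Human CEM cells, uninfected and HIV-1-infected, received five drug concentrations, and growth was read by soluble formazan assay. Compounds giving at least 50% protection were retested; reproducible 100% protection defined confirmed active.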

SMILES	EC50	IC50	outcome
CCOC(=O)CNCc1cc(=O)[nH]c2cc(Cl)ccc12	> 200 µM	40.7 µM	–
COc1cc(Cc2cnc(N)nc2N)cc(OC)c1OCCCNc1ccc([N+](=O)[O-])cc1	–	–	inactive
CC(=O)c1c(N=[N+]=[N-])c2cccc3c2n(c1=O)CCC3	> 200 µM	30.9 µM	–
Cc1ccc2c(c1)C(=O)/C(=C1/CCc3ccc(C)cc31)C2	> 200 µM	> 200 µM	–
CC(=O)OC(C)(C)/C=C/C(=O)[C@](C)(O)[C@H]1[C@H](O)C[C@@]2(C)[C@@H]3CC=C4[C@@H](C=C(O)C(=O)C4(C)C)[C@]3(C)C(=O)C[C@]12C	> 0.2 µM	0.00676 µM	–
CCC(C)(C)C1CCC2c3c([nH]c4ccccc34)C3C(=O)N(c4ccc(OC)cc4)C(=O)C3C2C1 (stereo not drawn)	> 200 µM	7.76 µM	–
CN1C2c3ccccc3C3C4c5ccccc5C(C31)C(C2[N+](=O)[O-])N4C (stereo not drawn)	> 43.7 µM	27.5 µM	–
Cn1c2ccccc2c2ccc3c(c21)C(=O)C=CC3=O	> 100 µM	1.35 µM	–
O=C(O)C12CC3CC(C1)C2C=C3P(=O)(O)O (stereo not drawn)	> 1020 µM	> 1020 µM	–
CCCC[n+]1cc(C(N)=O)cc2ccccc21	0.0692 µM	219 µM	–
CC(=O)OC1(C)C=Cc2ccccc2/C1=N/S(=O)(=O)c1ccccc1 (stereo not drawn)	> 200 µM	31.6 µM	–
COc1ncnc2c1ncn2C1CC(O)C(CO)(C(F)(F)F)O1 (stereo not drawn)	> 200 µM	> 200 µM	–
O=C(NCCCNC(=O)c1ccc2cc(O)ccc2c1)c1ccc2cc(O)ccc2c1	–	–	inactive
c1ccc(C2N=C(c3ccccn3)C(c3ccccn3)=NC2c2ccccc2)cc1 (stereo not drawn)	> 9.77 µM	> 9.77 µM	–
CCOC(=O)/C(=C\c1cccc(Cl)c1)[Se]c1ccccc1	> 14.1 µM	> 14.1 µM	–
C=C(CN(CC)CC)C1(c2ccccc2)CC2(CCCC2)C(=O)O1 (stereo not drawn)	> 200 µM	117 µM	–
CCCCC1c2c([nH]c3ccccc23)C2C(=O)N(c3ccc(OC)cc3)C(=O)C2C1CCC (stereo not drawn)	> 200 µM	3.55 µM	–
CC(=O)c1ccc(NC(=O)C(=O)C(C#N)CC(C)(C)C=O)cc1 (stereo not drawn)	> 83.2 µM	> 83.2 µM	–
C/C(CC(=O)Nc1cccc([N+](=O)[O-])c1)=N\NC(=O)C[n+]1ccccc1	> 631 µM	240 µM	–
CN(C)C(=S)/N=c1\ss/c(=N/C(=S)N(C)C)n1-c1ccc([N+](=O)[O-])cc1	> 200 µM	151 µM	–
COC1/C=C/OC2(C)Oc3c(C)c(O)c4c(O)c(cc(OCC(=O)N5CCOCC5C)c4c3C2=O)NC(=O)/C(C)=C/C=C/C(C)C(O)C(C)C(O)C(C)C(OC(C)=O)C1C (stereo not drawn)	> 200 µM	36.3 µM	–

SMILES	EC50	IC50	outcome
CCOC(=O)C(=O)Cc1cnc2ccccc2n1	> 53.7 µM	> 53.7 µM	–
COCc1c(C)oc2c(C)c3oc(=O)cc(C)c3cc12	> 110 µM	> 110 µM	–
CC1(C)CCC2=C(C1)Nc1ccc(Cl)cc1NC2c1ccc([N+](=O)[O-])cc1 (stereo not drawn)	> 200 µM	24.5 µM	–
CC(C)=CCC[C@@H](C)C1=C(O)C(N[C@H](C)c2ccccc2)=C(C)C(=O)C1=O	> 200 µM	1.66 µM	–
CO[C@@H]1[C@H](O)CC[C@]2(CO2)[C@H]1[C@@]1(C)O[C@@H]1CC=C(C)C	> 200 µM	85.1 µM	–
CSC(SC)=C1Sc2cccc(Cl)c2S1	> 9.33 µM	> 9.33 µM	–
N#CCCN(c1ccc(C=Nc2cccc([N+](=O)[O-])c2)cc1)S(=O)(=O)c1ccccc1	–	–	inactive
C=CN(C=C)C(=O)Cn1cc(-c2ccccc2)nn1	> 200 µM	> 200 µM	–
Cc1cccnc1NC(=S)Nc1ncccc1C	> 200 µM	186 µM	–
C/C(=N\N=C(/[O-])c1ccccc1)c1cccc(/C(C)=N/N=C(\[O-])c2ccccc2)n1.O.[Ni+2]	> 100 µM	> 100 µM	–
CCCN1CN(C(C(=O)N[C@@H]2C(=O)N3C2SC(C)(C)C3C(=O)O)c2ccc(O)cc2)CSC1=S (stereo partly drawn)	> 479 µM	145 µM	–
COc1ccc(-c2nc3c(=O)n(C)c(=O)n(C)c3nc2-c2ccc(OC)cc2)cc1	> 200 µM	195 µM	–
COc1cc(OC)cc(C(=O)CC(=O)c2cc(OC)cc(OC)c2)c1	> 20.9 µM	15.5 µM	–
COc1ccc(C(=O)C#Cc2cnc(OC)nc2OC)cc1	> 2 µM	0.363 µM	–
O=C(O)CCC1(Br)CCCCC(Br)C1=O (stereo not drawn)	> 724 µM	245 µM	–
COc1ccc(NC(=O)CC(=O)N/N=C/c2ccc(N(CCC#N)S(=O)(=O)c3ccccc3)cc2)cc1	> 251 µM	> 251 µM	–
NC(Cc1ccc(S(=O)(=O)O)cc1)C(=O)NC(Cc1ccc(S(=O)(=O)O)cc1)C(=O)NC(Cc1ccc(S(=O)(=O)O)cc1)C(=O)O (stereo not drawn)	> 200 µM	> 200 µM	–
Cc1nc2c(nc1C)C(=O)C(N)=CC2=O	–	–	inactive
CC(C)[Si](OCC1CC(C#N)OC(C)(C)O1)(C(C)C)C(C)C (stereo not drawn)	> 200 µM	107 µM	–
COC(=O)c1c(C)cccc1C1CN=NC12Cc1cc(C)cc(C)c1C2=O (stereo not drawn)	> 200 µM	33.1 µM	–
CCOC(=O)c1ccc(CS(=O)(=O)c2ccc(OC)cc2)c([N+](=O)[O-])c1	> 95.5 µM	> 95.5 µM	–

SMILES	EC50	IC50	outcome
COc1ccc(C=C2C(=O)OC(C)(C)OC2=O)cc1OC	> 170 µM	> 170 µM	–
CCOC(=O)C(C(=O)c1ccccc1C(=O)OC)=P(c1ccccc1)(c1ccccc1)c1ccccc1	22.9 µM	52.5 µM	–
COc1ccc(/C=C2\C=Cc3ccccc32)cc1OC	> 200 µM	33.9 µM	–
CC(C)(C)CS(=O)(=O)O.[Ag]	> 200 µM	10.5 µM	–
C/C(=N\NS(=O)(=O)c1ccc(C)cc1)c1cc2ccccc2n1C	> 79.4 µM	> 79.4 µM	–
CC1CCCC2=C1C(=O)N(CSCN1C(=O)C3=C(C1=O)C(C)CCC3)C2=O (stereo not drawn)	> 200 µM	141 µM	–
O=C1NC(=O)/C(=C\c2cccc(Br)c2)N1	> 200 µM	105 µM	–
CC(=O)Oc1cc2c(c(=O)n1C)C(C)N(C)C2=O (stereo not drawn)	53.7 µM	309 µM	–
COC(=O)C12C(=CCP1(C)=O)C(c1ccccc1)=NN2c1ccccc1 (stereo not drawn)	> 27.5 µM	> 27.5 µM	–
CC1CC[C@]2(C(=O)O)CCC3(C)C(=C2[C@H]1C)C=CC1[C@@]2(C)CC[C@H](O)C(C)(C)C2CC[C@]13C (stereo partly drawn)	> 100 µM	> 100 µM	–
[N-]=[N+]=NC1(c2ccccc2)C(=O)C(Cl)=C(c2ccccc2)N(c2ccccc2)C1=O (stereo not drawn)	> 200 µM	126 µM	–
COC(=O)c1ccc(NCC2=C(Br)C(=O)C=CC2=O)cc1Cl	–	–	inactive
COc1ccc(N2C(=O)CC(c3c[nH]c4ncccc34)C2=O)cc1 (stereo not drawn)	> 200 µM	42.7 µM	–
CN1CCN(CCCN2c3ccccc3Sc3ccc(C(F)(F)F)cc32)CC1	> 200 µM	9.55 µM and 4.37 µM	–
CC1(C)C2CCC(=O)C1C(OCc1ccccc1)C2 (stereo not drawn)	> 200 µM	95.5 µM	–
O=C(NNC1=NCCN1)c1ccco1	> 200 µM	> 200 µM	–
C/C=C/C#CC#CC(O)C(/C=C/CCCO)OC1OC(CO)C(O)C(O)C1O (stereo not drawn)	> 158 µM	> 158 µM	–
CCOC(=O)NC(Nc1ccc(F)cc1F)(C(F)(F)F)C(F)(F)F	> 200 µM	> 200 µM	–
CN1C(=O)CC2(C)c3cc(O)ccc3N(C)C12 (stereo not drawn)	–	–	inactive
CC(=O)O[C@]12CCCCC1C1(O)C(O)CCCCC12 (stereo partly drawn)	> 200 µM	> 200 µM	–
